# From patent publication US20090068286A1, “METHOD OF TREATING CANCER BY ADMINISTRATION OF 5-SUBSTITUTED NUCLEOSIDES” (RESprotect, GmbH, priority 2007, published 2009)
# Assays:
# [1] = tested on: AH13r sarcoma cells; experiment: Number of AH13r cells under cytostatic ± BVDU and in the recovery phase; assay type: cell-based, rat
# From the text: AH13r cells were subjected to increasing doses of the cytostatic mitomycin C (MMC). […] This inhibitory effect was maintained even after discontinuation of the cytostatic in the next cycle, in the so-called recovery phase. The cells without MMC and BVDU continued to grow without inhibition.
# [2] = tested on: STAT3; experiment: Western Blot analysis of survival pathways: STAT3; assay type: cell-based; settings: after DOX treatment, recovery phase: only BVDU given, no cytostatic
# Procedure: Different “survival pathways” were tested by means of Western Blot analysis. The analyses were implemented according to standard methods, as is described in Sambrook et al., 2001, Molecular Cloning (3rd ed.). Antibody dilutions: P-STAT3 (cell signaling) 1: 500, JUN-D (Santa Cruz, Calif.) 1: 1,000.
# The densitometrically determined content of oncogene proteins JUN-D and STAT3 was reduced by a quarter or two thirds after DOX treatment in the recovery phase (r=recovery phase). In the “recovery” only BVDU is given, no cytostatic.
# [3] = tested on: DT-diaphorase (DT-D); experiment: DT-diaphorase activity in cell extracts (dicoumarol-inhibitable NAD(P)H: dichlorophenol indophenol reductase); assay type: cell-based
# Procedure: The measurement of the DT-diaphorase (DT-D) was effected as a dicoumarol-inhibitable NAD(P)H: dichlorophenol indophenol reductase, as described in Hodnick et al., Anal. Biochem 252(1), 1997, 165-168 (incorporated by reference herein in its entirety). Extracts were tested of a similar number of cells which had been treated with DOX±BVDU for DT-D activity.
# [4] = tested on: Yoshida AH13r hepatoma cells; experiment: Growth of s.c. Yoshida AH13r hepatoma tumors in SD-rats; assay type: in vivo, rat
# Procedure: Ten SD-rats per treatment group were given a single s.c. injection of ascites Yoshida AH13r hepatoma cells. Five to 7 days after tumor application, the growth of the resulting tumors (at the injection site) was suppressed by i.p. treatment of the animals with cisplatin, doxorubicin or cyclophosphamide, or by additional oral treatment with 15 mg/kg BVDU (15 times within 3 weeks).
smiles,measurement,setting,value
"O=c1[nH]c(=O)n([C@H]2C[C@H](O)[C@@H](CO)O2)cc1/C=C/Br [BVDU, (E)-5-(2-bromovinyl)-2′-deoxyuridine]",Toxic effect on AH13r cells,[1]; BVDU given alone,no toxic effect
same,Cell growth in the recovery phase,"[1]; after MMC+BVDU, cytostatic discontinued, cells continued to receive BVDU",greatly inhibited in their growth
same,Reduction of STAT3 protein content (densitometry),[2],approximately two thirds
same,DT-D activity,[3]; BVDU alone,"increases the DT-D activity constantly, but in part only weakly"
same,DT-D activity relative to control cells or cells treated solely with DOX,[3]; cells treated with DOX±BVDU,approximately threefold
same,Effect on tumor size,"[4]; BVDU 50 mg/kg given only on the same day as cisplatin, no recovery phase",only weak
same,Effect on tumor size,"[4]; BVDU 15 times alone in the recovery phase, one time together with cyclophosphamide",strong effect
same,Effect on tumor size,"[4]; BVDU alone or in combination with DOX, recovery phase 6× one day",strong effect
same,Influence on the growth of rat tumors,"[4]; BVDU given alone, oral",no influence
same,Effect on tumor size,"[4]; BVDU with CIS, recovery phase 4×3 or 2 days",very strong
